# How the values were obtained:
# [1] = target: Tyrosine-protein kinase FRK (Homo sapiens) (UniProt P42685); assay: Inhibition of FRK at 10 uM
# [2] = target: Calcium/calmodulin-dependent protein kinase type 1 (Homo sapiens) (UniProt Q14012); assay: Inhibition of CaMK1alpha at 10 uM
# [3] = Inhibition of CDK4/[…] at 10 uM
# [4] = target: Serine/threonine-protein kinase pim-1 (Homo sapiens) (UniProt P11309); assay: Inhibition of PIM1 at 10 uM
# [5] = target: Ephrin type-B receptor 4 (Homo sapiens) (UniProt P54760); assay: Inhibition of EPHB4 at 10 uM
# [6] = target: Serine/threonine-protein kinase PLK2 (Homo sapiens) (UniProt Q9NYY3); assay: Inhibition of PLK2 at 10 uM
# [7] = target: Ribosomal protein S6 kinase alpha-6 (Homo sapiens) (UniProt Q9UK32); assay: Inhibition of RSK4 N-terminal at 10 uM
# [8] = target: Tyrosine-protein kinase Fyn (Homo sapiens) (UniProt P06241); assay: Inhibition of FYN at 10 uM
# [9] = target: RAC-gamma serine/threonine-protein kinase (Homo sapiens) (UniProt Q9Y243); assay: Inhibition of AKT3 at 10 uM
# [10] = target: Tyrosine-protein kinase Fgr (Homo sapiens) (UniProt P09769); assay: Inhibition of FGR at 10 uM
# [11] = target: Serine/threonine-protein kinase BRSK2 (Homo sapiens) (UniProt Q8IWQ3); assay: Inhibition of BRSK2 at 10 uM
# [12] = target: Serine/threonine-protein kinase 24 (Homo sapiens) (UniProt Q9Y6E0); assay: Inhibition of MST3 at 10 uM
# [13] = system: Epidermal growth factor receptor (Homo sapiens), P00533 [L861Q]; assay: Inhibition of EGFR L861Q mutant at 10 uM; type: protein assay
# [14] = target: Calcium/calmodulin-dependent protein kinase type II subunit alpha (Homo sapiens) (UniProt Q9UQM7); assay: Inhibition of CaMK2a at 10 uM
# [15] = target: MAP kinase-interacting serine/threonine-protein kinase 2 (Homo sapiens) (UniProt Q9HBH9); assay: Inhibition of MNK2 at 10 uM
# [16] = target: Interleukin-1 receptor-associated kinase 4 (Homo sapiens) (UniProt Q9NWZ3); assay: Inhibition of IRAK4 at 10 uM
# [17] = target: Ephrin type-A receptor 6 (Homo sapiens) (UniProt Q9UF33); assay: Inhibition of EPHA6 at 10 uM
# [18] = target: Non-receptor tyrosine-protein kinase TNK1 (Homo sapiens) (UniProt Q13470); assay: Inhibition of TNK1 at 10 uM
# [19] = system: ALK tyrosine kinase receptor (Homo sapiens), Q9UM73 [R1275Q]; assay: Inhibition of ALK R1275Q mutant at 10 uM
# [20] = target: Dual specificity mitogen-activated protein kinase kinase 4 (Homo sapiens) (UniProt P45985); assay: Inhibition of MAP2K4 at 10 uM
# [21] = target: Mitogen-activated protein kinase 10 (Homo sapiens) (UniProt P53779); assay: Inhibition of JNK3 at 10 uM
# [22] = target: Tyrosine-protein kinase JAK1 (Homo sapiens) (UniProt P23458); assay: Inhibition of JAK1 at 10 uM
# [23] = target: Cyclin-dependent kinase 2/cyclin A (Homo sapiens) (UniProt P24941+P20248+P78396); assay: Inhibition of CDK2-Cyclin A2 at 10 uM; type: protein-complex assay
# [24] = target: Dual specificity protein kinase TTK (Homo sapiens) (UniProt P33981); assay: Inhibition of TTK at 10 uM
# [25] = target: CDK3/cyclin E (Homo sapiens) (UniProt P24864+O96020+Q00526); assay: Inhibition of CDK3-Cyclin E1 at 10 uM; type: protein-complex assay
# [26] = target: Testis-specific serine/threonine-protein kinase 1 (Homo sapiens) (UniProt Q9BXA7); assay: Inhibition of TSSK1 at 10 uM
# [27] = target: Epithelial discoidin domain-containing receptor 1 (Homo sapiens) (UniProt Q08345); assay: Inhibition of DDR1 at 10 uM
# [28] = system: Mast/stem cell growth factor receptor Kit (Homo sapiens), P10721 [D816V]; assay: Inhibition of KIT D816V mutant at 10 uM
# [29] = target: Focal adhesion kinase 1 (Homo sapiens) (UniProt Q05397); assay: Inhibition of FAK at 10 uM
# [30] = target: Serine/threonine-protein kinase NIM1 (Homo sapiens) (UniProt Q8IY84); assay: Inhibition of NIM1 at 10 uM
# [31] = target: Serine/threonine-protein kinase D2 (Homo sapiens) (UniProt Q9BZL6); assay: Inhibition of PKD2 at 10 uM
# [32] = target: CDC7/DBF4 (Cell division cycle 7-related protein kinase/Activator of S phase kinase) (Homo sapiens) (UniProt Q9UBU7+O00311); assay: Inhibition of CDC7-Dbf4 at 10 uM; type: protein-complex assay
# [33] = target: Serine/threonine-protein kinase 10 (Homo sapiens) (UniProt O94804); assay: Inhibition of LOK at 10 uM
# [34] = target: Cyclin-dependent kinase 7/ cyclin H (Homo sapiens) (UniProt P51946+P50613); assay: Inhibition of CDK7-CycH-MAT1 at 10 uM; type: protein-complex assay
# [35] = target: MAP kinase-activated protein kinase 5 (Homo sapiens) (UniProt Q8IW41); assay: Inhibition of MAPKAPK5 at 10 uM
# [36] = target: Serine/threonine-protein kinase pim-2 (Homo sapiens) (UniProt Q9P1W9); assay: Inhibition of PIM2 at 10 uM
# [37] = target: LKB1-STRAD-MO25 complex (Homo sapiens) (UniProt Q15831+Q7RTN6+Q9Y376); assay: Inhibition of LKB1-MO25a-STRADa at 10 uM; type: protein-complex assay
# [38] = target: Aurora kinase B/Inner centromere protein (Homo sapiens) (UniProt Q96GD4+Q9NQS7); assay: Inhibition of AurB-INCENP at 10 uM; type: protein-complex assay
# [39] = target: Proto-oncogene serine/threonine-protein kinase mos (Homo sapiens) (UniProt P00540); assay: Inhibition of MOS at 10 uM
# [40] = system: Tyrosine-protein kinase ABL1 (Homo sapiens), P00519 [E255K]; assay: Inhibition of ABL E255K mutant at 10 uM
# [41] = target: Serine/threonine-protein kinase Nek1 (Homo sapiens) (UniProt Q96PY6); assay: Inhibition of NEK1 at 10 uM
# [42] = target: MAP kinase-activated protein kinase 2 (Homo sapiens) (UniProt P49137); assay: Inhibition of MAPKAPK2 at 10 uM
# [43] = target: Phosphorylase b kinase gamma catalytic chain, skeletal muscle/heart isoform (Homo sapiens) (UniProt Q16816); assay: Inhibition of PHKG1 at 10 uM
# [44] = target: Serine/threonine-protein kinase MRCK alpha (Homo sapiens) (UniProt Q5VT25); assay: Inhibition of MRCKa at 10 uM
# [45] = target: NT-3 growth factor receptor (Homo sapiens) (UniProt Q16288); assay: Inhibition of TRKC at 10 uM
# Sequence of Non-receptor tyrosine-protein kinase TNK1 (Homo sapiens) (Q13470 whole entry): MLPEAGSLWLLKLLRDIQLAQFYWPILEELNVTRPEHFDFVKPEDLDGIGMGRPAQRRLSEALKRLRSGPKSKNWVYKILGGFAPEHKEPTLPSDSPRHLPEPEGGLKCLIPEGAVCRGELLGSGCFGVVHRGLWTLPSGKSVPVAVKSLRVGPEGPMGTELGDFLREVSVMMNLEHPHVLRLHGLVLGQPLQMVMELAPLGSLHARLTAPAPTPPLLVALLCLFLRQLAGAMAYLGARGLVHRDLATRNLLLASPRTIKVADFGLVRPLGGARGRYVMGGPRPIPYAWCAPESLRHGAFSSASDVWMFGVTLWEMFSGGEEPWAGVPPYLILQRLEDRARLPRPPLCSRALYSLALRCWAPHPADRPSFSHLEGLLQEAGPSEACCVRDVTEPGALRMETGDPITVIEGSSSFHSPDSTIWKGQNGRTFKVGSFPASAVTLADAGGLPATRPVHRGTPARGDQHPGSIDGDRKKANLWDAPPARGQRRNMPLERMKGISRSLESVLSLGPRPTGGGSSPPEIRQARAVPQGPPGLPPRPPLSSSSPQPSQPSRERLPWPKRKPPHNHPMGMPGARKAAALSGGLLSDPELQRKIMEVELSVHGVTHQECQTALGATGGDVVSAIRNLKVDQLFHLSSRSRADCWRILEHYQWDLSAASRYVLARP
# Sequence of Testis-specific serine/threonine-protein kinase 1 (Homo sapiens) (Q9BXA7 whole entry, the tested form may be a part): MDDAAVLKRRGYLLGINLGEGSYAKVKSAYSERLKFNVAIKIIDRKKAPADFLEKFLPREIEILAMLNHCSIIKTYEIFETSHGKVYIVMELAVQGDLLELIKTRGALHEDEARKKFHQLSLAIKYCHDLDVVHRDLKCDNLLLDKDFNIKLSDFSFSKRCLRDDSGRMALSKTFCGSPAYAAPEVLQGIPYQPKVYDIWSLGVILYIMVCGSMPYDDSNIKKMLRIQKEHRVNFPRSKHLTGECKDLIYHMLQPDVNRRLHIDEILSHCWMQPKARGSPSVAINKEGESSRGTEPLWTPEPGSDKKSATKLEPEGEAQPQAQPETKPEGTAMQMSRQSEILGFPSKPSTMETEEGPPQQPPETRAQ
# Sequence of MAP kinase-activated protein kinase 5 (Homo sapiens) (Q8IW41 whole entry): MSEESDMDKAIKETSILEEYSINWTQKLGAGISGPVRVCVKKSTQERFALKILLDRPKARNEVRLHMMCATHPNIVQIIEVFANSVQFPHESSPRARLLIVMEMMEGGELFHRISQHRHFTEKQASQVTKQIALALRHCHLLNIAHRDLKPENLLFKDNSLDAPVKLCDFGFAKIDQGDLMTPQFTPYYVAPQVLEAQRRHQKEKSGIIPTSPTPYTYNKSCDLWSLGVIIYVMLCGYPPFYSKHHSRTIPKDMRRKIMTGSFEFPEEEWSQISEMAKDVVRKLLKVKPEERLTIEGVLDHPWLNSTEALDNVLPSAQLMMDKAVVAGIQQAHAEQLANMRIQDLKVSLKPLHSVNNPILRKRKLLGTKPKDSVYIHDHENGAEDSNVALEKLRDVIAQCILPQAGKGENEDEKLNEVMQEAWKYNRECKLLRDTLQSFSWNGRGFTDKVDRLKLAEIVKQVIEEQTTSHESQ
# Sequence of Tyrosine-protein kinase FRK (Homo sapiens) (P42685 whole entry): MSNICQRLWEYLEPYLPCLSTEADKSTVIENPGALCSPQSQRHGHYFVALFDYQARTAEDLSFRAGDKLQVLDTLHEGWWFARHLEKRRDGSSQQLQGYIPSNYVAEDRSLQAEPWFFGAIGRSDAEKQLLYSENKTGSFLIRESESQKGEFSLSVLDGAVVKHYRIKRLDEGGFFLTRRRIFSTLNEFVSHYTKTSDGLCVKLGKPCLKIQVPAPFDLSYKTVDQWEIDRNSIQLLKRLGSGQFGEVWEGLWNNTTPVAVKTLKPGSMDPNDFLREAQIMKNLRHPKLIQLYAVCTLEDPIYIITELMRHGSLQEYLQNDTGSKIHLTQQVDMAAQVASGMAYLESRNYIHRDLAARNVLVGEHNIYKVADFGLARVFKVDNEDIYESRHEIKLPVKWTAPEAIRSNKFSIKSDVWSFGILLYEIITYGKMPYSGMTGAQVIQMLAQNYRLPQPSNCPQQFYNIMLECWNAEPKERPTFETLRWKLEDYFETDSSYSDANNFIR
# Sequence of Ribosomal protein S6 kinase alpha-6 (Homo sapiens) (Q9UK32 whole entry): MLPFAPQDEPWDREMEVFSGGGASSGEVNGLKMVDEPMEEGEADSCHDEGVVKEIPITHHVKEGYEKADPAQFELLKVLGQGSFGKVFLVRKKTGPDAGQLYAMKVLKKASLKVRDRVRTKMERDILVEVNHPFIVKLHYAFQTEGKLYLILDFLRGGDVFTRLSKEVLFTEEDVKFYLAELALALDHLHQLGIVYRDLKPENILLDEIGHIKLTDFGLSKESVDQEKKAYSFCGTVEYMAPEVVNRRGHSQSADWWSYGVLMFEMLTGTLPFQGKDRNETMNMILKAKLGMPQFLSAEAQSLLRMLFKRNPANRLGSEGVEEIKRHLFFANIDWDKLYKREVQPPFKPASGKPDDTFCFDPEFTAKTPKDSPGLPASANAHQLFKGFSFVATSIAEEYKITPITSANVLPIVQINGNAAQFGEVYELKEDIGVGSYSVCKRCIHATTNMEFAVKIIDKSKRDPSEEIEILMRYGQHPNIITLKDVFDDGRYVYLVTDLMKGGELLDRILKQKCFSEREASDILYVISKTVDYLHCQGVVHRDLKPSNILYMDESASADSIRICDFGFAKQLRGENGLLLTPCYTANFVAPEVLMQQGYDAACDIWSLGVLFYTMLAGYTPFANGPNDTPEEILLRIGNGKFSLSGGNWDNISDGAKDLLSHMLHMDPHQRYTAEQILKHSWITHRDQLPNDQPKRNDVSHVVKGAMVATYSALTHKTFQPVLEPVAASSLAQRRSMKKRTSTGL
# Sequence of Calcium/calmodulin-dependent protein kinase type II subunit alpha (Homo sapiens) (Q9UQM7 whole entry): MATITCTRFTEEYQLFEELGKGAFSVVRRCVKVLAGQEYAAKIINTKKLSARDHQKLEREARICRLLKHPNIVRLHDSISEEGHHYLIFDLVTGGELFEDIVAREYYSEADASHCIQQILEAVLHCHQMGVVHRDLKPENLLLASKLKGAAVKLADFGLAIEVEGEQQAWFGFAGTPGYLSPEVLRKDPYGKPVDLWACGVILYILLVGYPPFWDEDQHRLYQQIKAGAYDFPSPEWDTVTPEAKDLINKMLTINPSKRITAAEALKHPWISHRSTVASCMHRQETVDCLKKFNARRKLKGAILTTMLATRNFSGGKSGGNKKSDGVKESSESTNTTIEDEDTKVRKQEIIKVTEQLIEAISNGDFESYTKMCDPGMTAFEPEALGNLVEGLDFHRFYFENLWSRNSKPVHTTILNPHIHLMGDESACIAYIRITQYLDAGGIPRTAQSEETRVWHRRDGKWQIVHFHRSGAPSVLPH
# Sequence of Mast/stem cell growth factor receptor Kit (Homo sapiens), P10721 [D816V] (P10721 whole entry D816V): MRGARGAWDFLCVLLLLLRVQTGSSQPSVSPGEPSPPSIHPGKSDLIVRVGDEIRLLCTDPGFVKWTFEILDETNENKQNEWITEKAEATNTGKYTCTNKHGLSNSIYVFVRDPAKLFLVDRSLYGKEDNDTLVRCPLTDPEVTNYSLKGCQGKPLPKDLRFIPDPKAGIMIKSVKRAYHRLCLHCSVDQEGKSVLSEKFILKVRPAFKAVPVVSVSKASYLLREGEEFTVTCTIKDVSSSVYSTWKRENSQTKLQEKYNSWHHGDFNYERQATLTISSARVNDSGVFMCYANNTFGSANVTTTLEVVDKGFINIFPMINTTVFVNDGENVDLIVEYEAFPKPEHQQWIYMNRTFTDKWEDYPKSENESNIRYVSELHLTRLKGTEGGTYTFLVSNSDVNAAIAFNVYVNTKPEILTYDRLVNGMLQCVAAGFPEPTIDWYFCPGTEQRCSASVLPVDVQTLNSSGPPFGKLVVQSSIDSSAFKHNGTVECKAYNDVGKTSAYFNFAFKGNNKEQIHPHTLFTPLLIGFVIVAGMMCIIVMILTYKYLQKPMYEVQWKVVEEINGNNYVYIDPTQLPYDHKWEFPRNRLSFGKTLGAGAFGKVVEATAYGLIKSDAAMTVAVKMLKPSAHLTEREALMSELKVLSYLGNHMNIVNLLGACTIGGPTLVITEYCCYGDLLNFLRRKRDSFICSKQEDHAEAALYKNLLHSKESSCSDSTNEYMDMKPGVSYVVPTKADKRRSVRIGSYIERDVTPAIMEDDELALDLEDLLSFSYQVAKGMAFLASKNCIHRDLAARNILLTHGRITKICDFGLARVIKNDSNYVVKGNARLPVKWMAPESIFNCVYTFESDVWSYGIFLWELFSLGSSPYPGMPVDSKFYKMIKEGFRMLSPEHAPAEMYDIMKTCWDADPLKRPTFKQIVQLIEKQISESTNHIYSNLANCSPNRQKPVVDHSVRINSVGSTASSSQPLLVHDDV
# Sequence of Tyrosine-protein kinase Fgr (Homo sapiens) (P09769 2-529 limits assumed): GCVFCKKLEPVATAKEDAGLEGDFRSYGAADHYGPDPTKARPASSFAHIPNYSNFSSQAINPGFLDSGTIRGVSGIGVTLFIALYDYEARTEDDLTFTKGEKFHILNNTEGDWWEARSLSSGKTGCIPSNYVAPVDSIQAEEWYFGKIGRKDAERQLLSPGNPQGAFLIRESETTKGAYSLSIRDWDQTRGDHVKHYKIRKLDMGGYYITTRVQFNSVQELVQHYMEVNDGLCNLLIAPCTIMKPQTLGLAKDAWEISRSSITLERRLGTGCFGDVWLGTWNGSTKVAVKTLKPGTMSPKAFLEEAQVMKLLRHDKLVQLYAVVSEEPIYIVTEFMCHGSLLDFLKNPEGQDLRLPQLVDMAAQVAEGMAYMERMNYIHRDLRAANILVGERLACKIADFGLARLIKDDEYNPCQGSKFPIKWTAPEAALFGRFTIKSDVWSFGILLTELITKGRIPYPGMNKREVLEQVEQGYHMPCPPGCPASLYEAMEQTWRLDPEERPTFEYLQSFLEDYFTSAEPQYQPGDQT
structure (smiles),measurement,setting,value
COc1ccc2c3ccnc(C(F)(F)F)c3n(CCCCN)c2c1,inhibition,[1],10%
same,inhibition,[2],14%
same,inhibition,[3],27%
same,inhibition,[4],91%
same,inhibition,[5],0%
same,inhibition,[6],15%
same,inhibition,[7],23%
same,inhibition,[8],8%
same,inhibition,[9],12%
same,inhibition,[10],11%
same,inhibition,[11],30%
same,inhibition,[12],9%
same,inhibition,[13],6%
same,inhibition,[14],53%
same,inhibition,[15],34%
same,inhibition,[16],16%
same,inhibition,[17],0%
same,inhibition,[18],10%
same,inhibition,[19],6%
same,inhibition,[20],10%
same,inhibition,[21],17%
same,inhibition,[22],0%
same,inhibition,[23],65%
same,inhibition,[24],6%
same,inhibition,[25],22%
same,inhibition,[26],43%
same,inhibition,[27],8%
same,inhibition,[28],32%
same,inhibition,[29],0%
same,inhibition,[30],1%
same,inhibition,[31],84%
same,inhibition,[32],14%
same,inhibition,[33],20%
same,inhibition,[34],93%
same,inhibition,[35],1%
same,inhibition,[36],64%
same,inhibition,[37],21%
same,inhibition,[38],5%
same,inhibition,[39],16%
same,inhibition,[40],0%
same,inhibition,[41],5%
same,inhibition,[42],7%
same,inhibition,[43],49%
same,inhibition,[44],18%
same,inhibition,[45],25%
